The test system of assay [1] is thapsigargin-induced IFN-g production in human whole blood. The format is cell-based.
Assay [2] deals with thapsigargin-induced IL-2 production in human whole blood.
[3] abbreviates: read-out: Analogue Activity (IC50) WB/IFNg.
[4] abbreviates: read-out: Analogue Activity (IC50) WB/IL-2.

Where two headings read alike, the source gives them in different places. Bridge positions count the residues as written; N and C are the ends. Square brackets hold non-standard residues; d marks the D form. Peptide text beside a SMILES is read from it. 1Nal = N[C@@H](Cc1cccc2ccccc12)C(=O)O

Our source for the IC50 values is US7820623B2 (priority 2006, dated 2010).

Regarding `CC[C@H](C)[C@@H]1NC(=O)[C@H](CCCCN)NC(=O)[C@@H](NC(=O)[C@H](CCCCN)NC(=O)[C@@H](NC(=O)[C@H](CC(N)=O)NC(=O)[C@@H](NC(=O)[C@@H](NC(=O)[C@@H](NC(=O)CN)C(C)C)[C@@H](C)CC)[C@@H](C)CC)C(C)C)CSSC[C@@H]2NC(=O)[C@H](CCCCN)NC(=O)CNC(=O)[C@H](Cc3ccccc3)NC(=O)[C@H](CCCNC(=N)N)NC(=O)[C@H](CCSC)NC(=O)CNC(=O)[C@H](C)NC(=O)[C@H](CCCCN)NC(=O)[C@H](CCCCN)NC(=O)[C@@H]3CSSC[C@@H](C(=O)N[C@H](C(=O)N4CCC[C@H]4C(=O)N[C@@H](CCCCN)C(=O)O)[C@@H](C)O)NC(=O)[C@H](Cc4c[nH]cn4)NC(=O)[C@H](CSSC[C@H](NC(=O)[C@H](CCC(N)=O)NC(=O)[C@H](CCCNC(=N)N)NC(=O)[C@H](CO)NC1=O)C(=O)N[C@@H](Cc1cccc4ccccc14)C(=O)N[C@@H](CCC(=O)O)C(=O)N1CCC[C@H]1C(=O)N3)NC(=O)[C@H](CCCCN)NC(=O)CNC(=O)[C@H](CC(N)=O)NC(=O)[C@H](CCSC)NC2=O` [L15Nal] (H-GVIINVKCKISRQC[1Nal]EPCKKAGMRFGKCMNGKCHCTPK-OH; disulfide 8-28, 14-33, 18-35), the IC50 in assay [1] (setting [3]) is 370 pM; in assay [2] (setting [4]), 358 pM.

`CC[C@H](C)[C@@H]1NC(=O)[C@H](CCCCN)NC(=O)[C@@H](NC(=O)[C@H](CCCCN)NC(=O)[C@@H](NC(=O)[C@H](CC(N)=O)NC(=O)[C@@H](NC(=O)[C@@H](NC(=O)[C@@H](NC(=O)CN)C(C)C)[C@@H](C)CC)[C@@H](C)CC)C(C)C)CSSC[C@@H]2NC(=O)[C@H](CCCCN)NC(=O)CNC(=O)[C@H](Cc3ccccc3)NC(=O)[C@H](Cc3cccc4ccccc34)NC(=O)[C@H](CCSC)NC(=O)CNC(=O)[C@H](C)NC(=O)[C@H](CCCCN)NC(=O)[C@H](CCCCN)NC(=O)[C@@H]3CSSC[C@@H](C(=O)N[C@H](C(=O)N4CCC[C@H]4C(=O)N[C@@H](CCCCN)C(=O)O)[C@@H](C)O)NC(=O)[C@H](Cc4c[nH]cn4)NC(=O)[C@H](CSSC[C@H](NC(=O)[C@H](CCC(N)=O)NC(=O)[C@H](CCCNC(=N)N)NC(=O)[C@H](CO)NC1=O)C(=O)N[C@@H](CC(C)C)C(=O)N[C@@H](CCC(=O)O)C(=O)N1CCC[C@H]1C(=O)N3)NC(=O)[C@H](CCCCN)NC(=O)CNC(=O)[C@H](CC(N)=O)NC(=O)[C@H](CCSC)NC2=O` [R24Nal] (H-GVIINVKCKISRQCLEPCKKAGM[1Nal]FGKCMNGKCHCTPK-OH; disulfide 8-28, 14-33, 18-35): the figures for the IC50 in assay [1] (setting [3]) and in assay [2] (setting [4]) were 818 pM and 293 pM, respectively.

For `CC[C@H](C)[C@@H]1NC(=O)[C@H](CCCCN)NC(=O)[C@@H](NC(=O)[C@H](CCCCN)NC(=O)[C@@H](NC(=O)[C@H](CCCNC(=N)N)NC(=O)[C@@H](NC(=O)[C@@H](NC(=O)[C@@H](NC(=O)CN)C(C)C)[C@@H](C)CC)[C@@H](C)CC)C(C)C)CSSC[C@@H]2NC(=O)[C@H](CCCCN)NC(=O)CNC(=O)[C@H](Cc3ccccc3)NC(=O)[C@H](CCCNC(=N)N)NC(=O)[C@H](CCSC)NC(=O)CNC(=O)[C@H](C)NC(=O)[C@H](CCCCN)NC(=O)[C@H](CCCCN)NC(=O)[C@@H]3CSSC[C@@H](C(=O)N[C@H](C(=O)N4CCC[C@H]4C(=O)N[C@@H](CCCCN)C(=O)O)[C@@H](C)O)NC(=O)[C@H](Cc4c[nH]cn4)NC(=O)[C@H](CSSC[C@H](NC(=O)[C@H](CCC(N)=O)NC(=O)[C@H](CCCNC(=N)N)NC(=O)[C@H](CO)NC1=O)C(=O)N[C@@H](CC(C)C)C(=O)N[C@@H](CCC(=O)O)C(=O)N1CCC[C@H]1C(=O)N3)NC(=O)[C@H](CCCCN)NC(=O)CNC(=O)[C@H](CC(N)=O)NC(=O)[C@H](CCSC)NC2=O` [N5R] (H-GVIIRVKCKISRQCLEPCKKAGMRFGKCMNGKCHCTPK-OH; disulfide 8-28, 14-33, 18-35), the IC50 in assay [1] (setting [3]) was found to be 120 pM; in assay [2] (setting [4]), 95 pM.

With “E16K, K20D, H34A (GVIINVKCKISRQCLKPCKDAGMRFGKCMNGKCACTPK)”, the figures for the IC50 in assay [1] (read-out: WB/IFNg (IC50)) and in assay [2] (read-out: WB/IL-2 (IC50)) were 26600 pM and 65500 pM, respectively.
